From patent EP0353416A2, “Use of ajoene and ajoene derivatives as cytostatics” (Gesellschaft für Biotechnologische Forschung mbH (GBF), priority 1988, dated 1990)

Experiments:
[1] = Inhibition of proliferation by incorporation of radioactive thymidine, BHK cell culture; type: cell-based, Hamster; settings: hamster; BHK cells; beyond the limit of reversible inhibition; read-out: irreversible, d. h. toxische Wirkung
From the text: (§1) Man ließ Ajoen auf eine Zellkultur der SV40-transformierten Baby-Hamster-Kidney-Linie (BHK; Fibroblast) einwirken. Die Proliferationshemmung wurde über den Einbau von radioaktivem Thymidin getestet.

[2] = tested on: SV40-transformierten Baby-Hamster-Kidney-Linie (BHK; Fibroblast); assay: as above; type: cell-based; settings: BHK cells
From the text: as §1

[3] = tested on: Hela-Zellen; assay: Inhibition of proliferation (thymidine incorporation), Hela cells; type: cell-based; settings: Hela cells (Beispiel 3)
Description: (§2) Man ließ Ajoen auf eine Zellkultur der SV40-transformierten Baby-Hamster-Kidney-Linie (BHK; Fibroblast) einwirken. Die Proliferationshemmung wurde über den Einbau von radioaktivem Thymidin getestet. Sie ließ sich ab 1 µg Ajoen/ml ermitteln. Die Figur zeigt eine typische Hemmkurve. Der Figur läßt sich entnehmen, daß die Ki-Werte (50 %) im Bereich von etwa 1 bis 10 und insbesondere etwa 2 bis 5 µg Ajoen/ml lagen.
(§3) Beispiel 1 wurde ferner abweichend mit folgenden Linien nachgearbeitet: Hela-Zellen (Beispiel 3), LTK-Mäusezellen (Fibro blasten; Beispiel 4) und humane FS4-Vorhautzellen (Fibroblast). Auch bei diesen Beispielen wurde die cytostatische und cytotoxische Wirkung des Ajoens bestätigt.

[4] = tested on: LTK-Mäusezellen (Fibroblasten); assay: Inhibition of proliferation (thymidine incorporation), LTK mouse cells; type: cell-based, Mäuse; settings: LTK mouse cells (Beispiel 4)
Description: as §2, §3

[5] = tested on: humane FS4-Vorhautzellen (Fibroblast); assay: Inhibition of proliferation (thymidine incorporation), human FS4 foreskin cells; type: cell-based
Description: as §2, §3

## C=CCSSC=CC[S+]([O-])CC=C (stereo not drawn) [Ajoen]
[1]
  MCC: > 20 µg/mL
[2]; upper concentration of reversible inhibition
  Hemmung der Proliferation reversibel bis zu: ≤ 20 µg Ajoen/ml
[2]; Mesocricetus auratus, lowest concentration at which inhibition was detectable, thymidine incorporation, read-out: Proliferationshemmung ließ sich ermitteln ab
  minimal effective concentration: ≥ 1 µg/mL
[3]
  cytostatische und cytotoxische Wirkung: bestätigt
[4]
  cytostatische und cytotoxische Wirkung: bestätigt
[5]
  cytostatische und cytotoxische Wirkung: bestätigt
